Test results from US10406120B2, “Methods and compositions for treating kidney disorders” (Golden Biotechnology Corporation, priority 2013, dated 2019).

Columns and labels:
[1] = FSGS model: renal histopathology (H&E); format: in vivo, BALB/c mice; conditions: FSGS mice, 50 mg/kg by gavage daily, day 14 to day 21, vs control FSGS mice
Procedure: Experiments described herein were performed on 8-week-old female BALB/c mice. The FSGS mice were injected intravenously with a single dose of adriamycin (0.1 mg/10 g body weight). […] BALB/c mice intraperitoneal injected with normal saline were used as normal controls, while ASLN mice given vehicle (corn oil) by gavage were used as disease controls. Mice were killed at day 7, 14, or 21 after disease induction, and spleen, renal cortical tissue, and blood samples collected and stored appropriately until analysis. All animal experiments were performed with the ethical approval of the Institutional Animal Care and Use Committee of The National Defense Medical Center, Taiwan and performed according to the ethical rules in the NIH Guide for the Care and Use of Laboratory Animals.
Formalin-fixed and paraffin-embedded renal sections were prepared as described in Shui et al. for renal pathologic evaluation. (Shui, et al., Transl Res, 150: 216-222, 2007) Renal pathology and scoring of renal lesions were performed according to the known method disclosed in Shui. […] The number of glomeruli with EPHLs was expressed as a percentage of the total number of evaluated glomeruli according to methods disclosed before (see for example, Shui, et al., Nephrol Dial Transplant, 21: 1794-1802, 2006; Ka, et al., Nephrol Dial Transplant, 21: 288-298, 2006).

superoxide anion = assay: FSGS model: superoxide anion / ROS determination (lucigenin, DHE); format: in vivo, BALB/c mice; conditions: FSGS mice
Procedure: (§1) Experiments described herein were performed on 8-week-old female BALB/c mice. The FSGS mice were injected intravenously with a single dose of adriamycin (0.1 mg/10 g body weight). The mice were given Compound 1 six hours before adriamycin injection by gavage daily till sacrifice. BALB/c mice intraperitoneal injected with normal saline were used as normal controls, while ASLN mice given vehicle (corn oil) by gavage were used as disease controls. Mice were killed at day 7, 14, or 21 after disease induction, and spleen, renal cortical tissue, and blood samples collected and stored appropriately until analysis. All animal experiments were performed with the ethical approval of the Institutional Animal Care and Use Committee of The National Defense Medical Center, Taiwan and performed according to the ethical rules in the NIH Guide for the Care and Use of Laboratory Animals.
Kidney in-situ superoxide anion production was determined by DHE labeling according to the known method. (Wu, et al., Nephrol Dial Transplant, 2008, 23: 3082-3090, or Ka, et al., J. Am. Soc. Nephrol. 2007, 18:2473-2485) Fluorescent images were quantified by counting the percentage of positive nuclei in the total nuclei per kidney cross section. Sera and kidney tissues were assessed for superoxide anion according to the known method. (Wu, et al., J Pineal Res, 2001, 30: 147-156, or Ka, et al., J. Am. Soc. Nephrol. 2007, 18:2473-2485) For ROS levels of serum, urine, and renal tissue, the samples were incubated with Krebs-HEPES buffer, and lucigenin (Sigma-Aldrich Chemical Co, MO) at 1.25 mM was used as substrate. Luminescence counts were obtained in duplicate at 15 sec intervals by a microplate luminometer (Hidex Microplate Luminometer, Finland), as previously described (Kretzler, et al.,. Virchows Arch, 425: 181-193, 1994). The superoxide anion activity was expressed as relative luminescence units (RLU) per 15 min per mg of organ dry weight (i.e., RUL/15 min/mg) or RLU/15 min/ml.

TGF-β1 = assay: FSGS model: TGF-β1 in serum and kidney (ELISA, IHC); format: in vivo, BALB/c mice; conditions: FSGS mice
Procedure: as §1
For IHC, formalin-fixed and paraffin-embedded renal sections were prepared and incubated with primary antibodies against mouse Desmin (Lab Vision, CA, USA), CD3 (pan-T cell; Serotec, N.C., USA), F4/80 (monocytes/macrophages; Serotec), IL-6 (R&D Systems, MN, USA), NF-κB p65 (Cell Signaling Technology, MA, USA), collagen I, III, and IV (Southern Biotech, AL, USA), or TGF-β1 (Santa Cruz Biotechnology, CA, USA), biotinylated second antibodies (Dako, Glostrup, Denmark), and avidin-biotin-peroxidase complex (Dako). Semi-quantitative evaluation of staining was performed.
The TGF-β1 protein levels in serum and renal tissue were measured using the commercial ELISA kits (R&D Systems), according to the manufacturer's instructions. Samples were acidified with 1 N HCl and neutralized with 1.2 N NaOH/0.5 M HEPES to assay for the amount of TGF-β1.

[2] = AcP-IgAN model: body weight and general condition; format: in vivo, B cell-deficient mice; conditions: AcP-IgAN mice, 50 mg/kg, up to day 28
Procedure: B cell-deficient mice (B6.129S2-Igh-6tm1Cgn/J) were obtained from the Academia Sinica (Professor John T. Kung, Institute of Molecular Biology), and maintained at the animal center of the National Defense Medical Center, Taipei, Taiwan. AcP-IgAN was induced in the mice by daily injection of purified IgA anti-phosphorylcholine antibodies and pneumococcal C-polysaccharide (PnC) as described previously (Chao, et al., Kidney Int. 70:283-297; 2006). All animal experiments were performed with the approval of the Institutional Animal Care and Use Committee of The National Defense Medical Center, Taiwan, and were consistent with the NIH Guide for the Care and Use of Laboratory Animals.
Body weight of the mice was measured weekly. Urine samples were collected in metabolic cages weekly, and urine protein determined followed the know methods (Chao, et al., Kidney Int. 70:283-297; 2006). Serum samples were collected at day 3 and day 28 to measure serum levels of blood urea nitrogen (BUN) and creatinine (Cr).

[3] = day 14 and day 21, vs control FSGS mice

**Q.** With COC1=C(OC)[C@H](O)[C@H](C/C=C(\C)CC/C=C(\C)CCC=C(C)C)[C@@H](C)C1=O [Compound 1, Antroquinonol] as the compound, how does the “progressive renal lesions (sclerotic lesions, glomeruli containing EPHL, peri-glomerular mononuclear leukocyte infiltration), H&E” value [1] read?
**A.** The value was “greatly reduced”.

**Q.** What about the “superoxide anion levels in urine” value (superoxide anion; day 7 to day 21, vs control FSGS mice) of the same compound?
**A.** The value was “significantly lowered”.

**Q.** And the “serum superoxide anion levels” value (superoxide anion; day 7 to day 21, vs control FSGS mice, to a level similar to normal control)?
**A.** The value was “effectively attenuated”.

**Q.** And the “in-situ ROS production in renal tissue (DHE fluorescence)” value (superoxide anion; day 14 and day 21)?
**A.** The value was “only very low DHE fluorescence”.

**Q.** And the “superoxide anion levels in the kidney” value (superoxide anion; day 14 and day 21, vs control FSGS mice, to a level similar to normal control)?
**A.** The value was “effectively attenuated”.

**Q.** And the “TGF-β1 protein levels in kidney (ELISA)” value (TGF-β1; [3])?
**A.** The value was “greatly abrogated”.

**Q.** What about the “TGF-β1 protein levels in serum (ELISA)” value (TGF-β1; [3]) of the same compound?
**A.** Its value is “greatly abrogated”.

**Q.** And the “TGF-β1 protein expression in the kidney (IHC)” value (TGF-β1; vs control FSGS mice)?
**A.** The value was “significantly lower”.

**Q.** And the “activity, hair loss, appetite” value [2]?
**A.** The value was “normal activity and no evidence of hair loss or appetite change”.

**Q.** What about the “growth (body weight recorded every week)” value [2] of the same compound?
**A.** Its value is “no different from that of normal controls”.
